“Also recorded” adds a separate entry of the source.
Columns and labels:
[1] = test system: CD4+ splenocytes from R-EAE mice; assay: Ex vivo proliferation of CD4+ splenocytes from treated R-EAE mice; assay type: in vivo, mouse; conditions: for proliferative responses (mean Δcpm) to PLP139-151: mice treated on day 0, cells 45 days post-immunization; for average proliferative response of unstimulated CD4+ splenocytes: in cpm
Experimental: (§1) Data represent average±S.D. from two experiments (n=9/group). (C)-(H) show GILZ-peptide treatment suppresses Th1 cytokines in R-EAE. […] C, proliferative responses of CD4+ splenocytes are plotted as Δcpm±S.E. #, p<0.05 as compared with the responses of cells from vehicle-treated mice. Supernatant collected at 48 h from separate CD4+ splenocyte cultures were assessed for (D) IL-12, (E) IFN-γ, (F) IL-17, (G) IL-10, and (H) TGF-β by ELISA. * and # represent p<0.05 as compared with vehicle or control peptide-treated groups, respectively.
(§2) Supernatants collected at 24 and 48 h were assessed for specific cytokines using the OptEIA kits (BD Biosciences). Proliferation assays included parallel cultures for 72 h with a final 18-h pulse with [^3H]thymidine measured by liquid scintillation counting (Microbeta, Turku, Finland).

[2] = test system: CD4+ LNC from PLP primed SJL/J mice; assay: In vitro proliferation ([3H]-thymidine) of PLP139-151 restimulated CD4+ LNC from primed SJL/J mice; assay type: cell-based, mouse; conditions: for proliferative response, in words: vs PLP139-151 alone or vs r-GILZ
Experimental: CD4+ lymph node cells (LNC) isolated from the draining lymph nodes harvested from SJL/J mice 10 days after immunization with PLP139-151 were cultured in 96-well plates at […] in complete RPMI and restimulated with the PLP peptide (40 μg/ml) for 72 h, including a final 16-h pulse with [^3H]-thymidine. […] Separate cultures stimulated with ova (40 μg/ml) served as control for antigen specificity. Irradiated splenocytes from syngenic mice were used as antigen presenting cells (APC). Cultures were harvested onto glass fiber mats using a Skatron harvester (Skatron, Sterling, Va.), and the levels of [^3H]-thymidine incorporation were determined by liquid scintillation counting (Microbeta; Wallac, Turku, Finland). Results were confirmed by replicate experiments. Data are expressed as Δcpm (counts/min incorporated in antigen-stimulated culture-counts/min incorporated by control unstimulated culture).
as §2

[3] = test system: CD4+ splenocytes/LNC from R-EAE mice; assay: Ex vivo cytokine secretion (ELISA) by CD4+ cells from treated R-EAE mice; assay type: in vivo, mouse
Experimental: as §1
Supernatants collected 48 hrs later were assessed for cytokines using Opt EIA kits according to the manufacturer's recommendations (BD PharMingen). Differences between the groups in the mean clinical score and cytokine secretion were determined by a one-way ANOVA with Tukey's posthoc. Results were considered significant at p<0.05.
as §2

[4] = test system: CD4+ LNC from PLP primed SJL/J mice; assay: In vitro cytokine secretion (ELISA) by PLP139-151 restimulated CD4+ cells from primed SJL/J mice; assay type: cell-based, mouse; conditions: for IFN-γ secretion / IL-10 secretion / IL-12 secretion / IL-17 secretion: CD4+ LNC, PLP restimulated, 48 h; for IFN-γ secretion / IL-10 secretion / IL-12 secretion: vs untreated/control peptide; for IL-17 secretion: vs untreated/control-P; for cytokine secretion (INF-γ and IL-12p40) by in-vivo primed T cells: CD4+ splenocytes, PLP 40 μg/ml, 24 hrs, FIG. 5
Experimental: CD4+ splenocytes isolated 10 days post-immunization from SJL mice induced EAE were co-cultured with irradiated syngenic APC and restimulated with PLP (40 μg/ml) in the presence of complex of chariot peptide with rGILZ protein/dexamethasone/GILZ-P at indicated concentrations. Supernatants collected after 24 hrs were assessed for INF-γ and IL-12p40 by ELISA. *=p<0.05 when compared to cells +PLP.
Supernatants from separate CD4+LNC cultured similarly collected at 24 hrs and 48 hrs were stored at −20° C. The levels of cytokines, IL-10, IL-12, and interferon gamma (IFN-γ) were determined by ELISA, using OptEIA kits, according to the manufacturer's recommendations (BD PharMingen). Group comparisons were made by one way analysis of variance (ANOVA) followed by Tukey's post-hoc.
as §2

[5] = test system: T-bet, GATA-3, IL-10 and FoxP3 mRNA; assay: Quantitative RT-PCR in CD4+ LNC from treated R-EAE mice; assay type: in vivo, mouse; conditions: for GATA-3 mRNA / T-bet mRNA: mice treated on day 0, re-stimulation with PLP139-151; for FoxP3 mRNA / IL-10 mRNA: mice treated on day 0, vs vehicle/control-P
Experimental: 50 ng of cDNA from CD4+LNC were used for quantitative measurement of message for (A) T-bet, (B) GATA-3, (C) IL-10, and (D) FoxP3 by quantitative RT-PCR. (E), gel electrophoresis of representative products. * and # represent p<0.05 by analysis of variance as compared with vehicle or control peptide-treated group, respectively.

T-bet and GATA-3 mRNA = assay: Real time PCR for T-bet and GATA-3 in CD4+ LNC restimulated in vitro; assay type: cell-based, mouse; conditions: CD4+ LNC restimulated in vitro with PLP139-151
Experimental: Intracellular delivery of r-GILZ was detected using […]-labeled anti-DDK mAb in permeabilized cells and measured by FACS Calibur. […] The delivery efficiency was assessed by mean fluorescence intensity (D). […] (F)-(I) show supernatants collected at 48 h were assessed for IFN-γ (F), IL-12 (G), IL-17 (H), and IL-10 (I) by ELISA. […] Five micrograms of nuclear extracts were tested for binding of the activated p65 NF-κB subunit to an NF-κB consensus sequence using the TransAM NF-κB ELISA kit. The p65 DNA binding activity was calculated as the ratio of absorbance from PLP139-151-stimulated cells to that of unstimulated cells. Values are the average±S.D. performed 3 times in duplicate. (K)-(L) show real time PCR for T-bet (K) and GATA-3 (L) was performed using 50 ng of cDNA isolated from CD4+LNC of R-EAE mice re-stimulated in vitro with PLP139-151 under the indicated conditions.
Proliferative responses of CD4+ lymph node cells and splenocytes harvested 10 days post-induction upon re-stimulation in vitro with PLP^139-151 in the presence or absence of chariot peptide complexed with purified GILZ protein and/or GILZ mimetics at varying concentrations is determined as described. IL-2, TNF-α, IFN-γ, IL12-p40, IL-17, IL-4, IL-5, IL-10 and TGF-β) of the cells following similar in vitro restimulation is determined by ELISA. Measurement of relative quantities of Th1 and Th2 specific transcription factors is determined by real time PCR using ABI primers.

[6] = Example 1, LNC 45 days post-immunization, PLP139-151 and/or MBP87-99, vs vehicle/control peptide
[7] = Example 1, LNC 45 days post-immunization, PLP139-151 or MBP87-99, vs vehicle/control peptide
[8] = MBP87-99 stimulation, mice treated on day 0
[9] = PLP139-151 re-stimulation, mice treated on day 0
[10] = mice treated 12 days post-immunization

Substance | proliferative responses (mean Δcpm) to PLP139-151 [1] | average proliferative response of unstimulated CD4+ splenocytes ([1]; mice treated on day 0) | proliferative response, in words [2] | IL-10 secretion [3, 6] | IFN-γ secretion [3, 7] | IL-12 secretion [3, 7] | TNF-α secretion [3, 7] | IL-10 secretion [3, 8] [pg/mL] | TGF-β secretion [3, 8] [pg/mL] | IFN-γ secretion [3, 9] [pg/mL] | IL-12 secretion [3, 9] [pg/mL] | IL-17 secretion [3, 9] [pg/mL] | IFN-γ secretion [4] | IL-10 secretion [4] | IL-12 secretion [4] | IL-17 secretion [4] | cytokine secretion (INF-γ and IL-12p40) by in-vivo primed T cells [4] | GATA-3 mRNA [5] | T-bet mRNA [5] | FoxP3 mRNA [5] | further results
r-GILZ: recombinant glucocorticoid induced leucine zipper protein (Abnova; OriGene with C-terminal DDK) | 16,880±264 cpm | 2,037±603 | significantly decreased proliferative response | higher | significantly reduced | significantly reduced | significantly reduced | 1667 ± 63.7 | 31.7 ± 0.8 | 100.5 ± 6.8 | 22.5 ± 01.05 | 10.66 ± 0.2 | significantly decreased; also recorded: significantly lower | elevated | significantly decreased; also recorded: significantly lower | significantly lower | suppresses | elevated | significantly lower | significantly higher | proliferative response (Δcpm) ([2]; r-GILZ 200 ng with Pep-1, PLP 40 μg/ml, 72 h): 4658+/−266 cpm; IL-10 mRNA [5]: significantly higher; GATA-3 mRNA (T-bet and GATA-3 mRNA): up-regulated; also recorded: elevated; T-bet mRNA (T-bet and GATA-3 mRNA): down-regulated; also recorded: significantly decreased
Ac-CLSPEEPAPESPQVPEAPGGSAV-NH2 [GILZ-P] | 5,733±208 cpm | 2,376±602 | significantly decreased proliferative response | higher | significantly reduced | significantly reduced | significantly reduced | 1850.8 ± 90 | 33.31 ± 4 | 96.5 ± 7.1 | 12.7 ± 0.47 | 10.85 ± 0.3 | significantly lower | elevated | significantly lower | significantly lower | suppresses | elevated | significantly lower | significantly higher | average proliferative response of unstimulated CD4+ splenocytes ([1]; mice treated on day 12): 1,823±532; proliferative response (mean Δcpm), maximum inhibition ([2]; 250 μM GILZ-P with Pep-1): 1404±106 cpm; proliferative response (Δcpm) ([2]; GILZ peptide in the absence of Pep-1): 6663±173 cpm; proliferative response (Δcpm) ([2]; GILZ peptide in the absence of Pep-1, listed as GILZ peptide): 6663+/−173 cpm; proliferative response (Δcpm) ([2]; peptide 500 μM in complex with Pep-1, PLP 40 μg/ml, 72 h): 1702+/−217 cpm; proliferative response, in words ([2]; listed as GILZ peptide): greater inhibition than those treated with r-GILZ at all concentrations; IFN-γ secretion [3, 8]: 97.4 ± 6.9 pg/mL; IL-12 secretion [3, 8]: 28.4 ± 1.6 pg/mL; IL-17 secretion [3, 8]: 10.43 ± 0.4 pg/mL; IL-10 secretion ([3]; PLP139-151 stimulation, mice treated on day 0): 2316 ± 52.9 pg/mL; IL-12 secretion, in words [3, 10]: significantly lower; reduction in IFN-γ, in words [3, 10]: not significant; IFN-γ secretion ([4]; listed as GILZ-peptide): significantly decreased; IL-12 secretion ([4]; listed as GILZ-peptide): significantly decreased; IL-10 mRNA [5]: significantly higher; GATA-3 mRNA (T-bet and GATA-3 mRNA): elevated; T-bet mRNA (T-bet and GATA-3 mRNA): significantly decreased; GATA-3 mRNA (T-bet and GATA-3 mRNA; listed as GILZ-peptide): up-regulated; T-bet mRNA (T-bet and GATA-3 mRNA; listed as GILZ-peptide): down-regulated

— US8999937B2, “Glucocorticoid induced leucine zipper mimetics as therapeutic agents in multiple sclerosis” (Indiana University Research and Technology Corporation, priority 2011, dated 2015)
